Measured values from PubChem BioAssay AID2060626 (Molecular Pharmacology Branch, DTP, NCI, 2025).
Several values for one entry are separate records, joined by “and”; a condition that tells them apart may be missing. Equal values may be shown once.

Tested on: 168753-222-R-J1-PDC complex spheroid viability
Assay: Anticancer human tumor 168753-222-R-J1-PDC patient-derived bladder carcinoma cell line growth inhibition [CLK]
Conditions: for viability, T/C: stronger effect = lower value; for IC50: curve of compound
Excerpt: A high-throughput screen of multi-cell type tumor spheroids was designed to identify active combinations of […] and targeted small molecules. Complex spheroids include a stromal component modeled by human endothelial cells (HUVEC) and fibroblasts modeled by human mesenchymal stem cells (MSCs). The concentration ranges selected for each drug and investigational agent were based upon clinically achievable concentrations if the clinical Cmax of the agent was known.
Compounds. The drugs and investigational agents: cirtuvivint (SM08502; NSC835563), CC-671 (NSC850746), vemurafenib (NSC761431), tapotoclax (NSC804041), sotorasib (NSC818433), adagrasib (NSC831453), MRTX-1133 (NSC836407), BAY2416964 (NSC825713), copanlisib (NSC816437), inavolisib (NSC800729), abemaciclib (NSC768073), osimertinib (NSC779217), entinostat (NSC756642), eltanexor (KPT-8602, NSC794443), venetoclax (NSC766270), ceralasertib (NSC777638), bortezomib (NSC756655), olaparib (NSC753686), talazoparib (NSC767125), alisertib (NSC759677), peposertib (NSC802822), gemcitabine (NSC613327), 5-fluorouracil (NSC19893), SN-38 (NSC673596), oxaliplatin (NSC266046), paclitaxel (NSC125973), and doxorubicin (NSC123127), were obtained from the National Cancer Institute (NCI) Developmental Therapeutics Program Chemical Repository. The FDA-approved anticancer drug set is available from the Developmental Therapeutics Program at https://dtp.cancer.gov/organization/dscb/obtaining/available plates.htm. […] The stock solutions were prepared in dimethyl sulfoxide (DMSO, Sigma-Aldrich, St. Louis, MO, cat. D2650), except for the platinum complexes which were prepared in saline (Quality Biological, Gaithersburg, MD, cat. 114-055-101), at 800-fold the tested concentration and stored at -70 degrees C prior to their use. All drugs and investigational agents were tested over a range starting from a high concentration at or near the clinical Cmax and decreasing in half-log increments. If the clinical Cmax for an agent had not been determined, the highest concentration tested was 10 microM.
Cell Culture. All cells were maintained in an incubator at 37 degrees C and 5% CO2 with 95% humidity. The PDC lines were cultured according to standard operating procedures established by the NCI PDMR. Briefly, all PDCs were thawed and cultured in Matrigel-coated flasks prepared with a working solution of 1X Ham's F-12 nutrient mix, without supplementation (Invitrogen, Waltham, MA, cat. 11765054), 100 U/mL penicillin-streptomycin (Invitrogen, cat. 15140122), and 2.5% Matrigel (Corning Inc., Corning, NY, cat. 354248) for the first three passages. The 947758-054-R-J2-PDC line was cultured in 6B/Colon 1A media, which includes advanced DMEM/F-12 (Thermo Fisher Scientific, cat. 12634028), 10 mM HEPES (Thermo Fisher Scientific, cat. 15630080), 1X GlutaMAX supplement (Thermo Fisher Scientific, cat. 35050061), 0.1 mg/mL primocin (InvivoGen, cat. ant-pm-2), 10% defined fetal bovine serum, heat inactivated (HyClone Laboratories Inc., cat. SH30070.03HI), 1.25 mM N-Acetyl-L-cysteine (Sigma-Aldrich, cat. A9165), 10 mM nicotinamide (Sigma-Aldrich, cat. N0636), 1X B-27 supplement (Thermo Fisher Scientific, cat. 17504044), 1X N-2 supplement (Thermo Fisher Scientific, cat. 17502048), and 10 microM Y-27632 dihydrochloride (Tocris Bioscience, cat. 1254). The 876862-298-R-J1-PDC was cultured in 6E media, which includes all 6B/Colon 1A media components plus 50% L-WRN conditioned media (ATCC, cat. CRL-3276), 50 ng/mL recombinant human EGF recombinant protein (hEGF; Thermo Fisher Scientific, cat. PHG0311), 10 ng/mL recombinant human fibroblast growth factor 10 (hGFG-10; PeproTech, cat. 100-26), 1 ng/mL recombinant human fibroblast growth factor 2 (hFGF-2; PeproTech, cat. 100-18B), and 1 µM prostaglandin E2 (PGE2; Tocris, cat. 2296). The 227483-062-R1-J1-PDC line was cultured in Panc media, containing all 6E components except hFGF-2, with the addition of 500 nM SB-431542 (Selleckchem, cat. S1067) and 10 nM gastrin (Tocris, cat. 3006). […]
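Also: viability measured after seven days of drug exposure.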
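For viability, T/C in this document: luminescence signal used as surrogate for viable cell amount; 100% = DMSO vehicle control wells.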

| SMILES | viability, T/C (compound 0.0316 µM) | viability, T/C (compound 0.1 µM) | viability, T/C (compound 0.316 µM) | viability, T/C (compound 1 µM) | viability, T/C (compound 3.16 µM) | viability, T/C (compound 10 µM) | IC50 | viability, T/C (compound 0.000949 µM) | viability, T/C (compound 0.003 µM) | viability, T/C (compound 0.00949 µM) | viability, T/C (compound 0.03 µM) | viability, T/C (compound 0.0949 µM) | viability, T/C (compound 0.3 µM) |
| --- | --- | --- | --- | --- | --- | --- | --- | --- | --- | --- | --- | --- | --- |
| C#Cc1c(F)ccc2cc(O)cc(-c3ncc4c(N5CC6CCC(C5)N6)nc(OCC56CCCN5CC(F)C6)nc4c3F)c12 (configuration not stated) | 107% and 94.2% | 103% and 96.3% | 99.5% and 107% | 103% and 97.3% | 89.2% and 66.9% | 80.6% and 52.9% | > 10 µM | – | – | – | – | – | – |
| C=C(F)C(=O)N1CCN(c2nc(OCC3CCCN3C)nc3c2CCN(c2cccc4cccc(Cl)c24)C3)CC1CC#N (configuration not stated) | 99.3% and 97.7% | 93.6% and 102% | 91.3% and 87.2% | 95.6% and 87.8% | 93.2% and 67.9% | 70.9% and 16.5% | > 10 µM and 4.65 µM | – | – | – | – | – | – |
| C=CC(=O)N1CCN(c2nc(=O)n(-c3c(C)ccnc3C(C)C)c3nc(-c4c(O)cccc4F)c(F)cc23)C(C)C1 (configuration not stated) | 91% and 86.6% | 111% and 92.8% | 101% and 92.3% | 110% and 103% | 106% and 121% | 103% and 74.9% | > 10 µM | – | – | – | – | – | – |
| C=CC(=O)Nc1cc(Nc2nccc(-c3cn(C)c4ccccc34)n2)c(OC)cc1N(C)CCN(C)C | – | – | – | – | – | – | > 0.3 µM | 111% and 100% | 108% and 99.8% | 97.8% and 98.2% | 98% and 106% | 103% and 106% | 89.4% and 103% |
| CC(=O)O[C@H]1C(=O)[C@@]2(C)[C@H]([C@H](OC(=O)c3ccccc3)[C@]3(O)C[C@H](OC(=O)[C@H](O)[C@@H](NC(=O)c4ccccc4)c4ccccc4)C(C)=C1C3(C)C)[C@]1(OC(C)=O)CO[C@@H]1C[C@@H]2O | 22.5% and 55.4% | 10.6% and 32.8% | 11.2% and 23.4% | 12.6% and 36.7% | 16% and 32.8% | 20.1% and 42.8% | < 0.0316 µM | – | – | – | – | – | – |
| CC(C)CC(NC(=O)C(Cc1ccccc1)NC(=O)c1cnccn1)B(O)O (configuration not stated) | – | – | – | – | – | – | 0.00211 µM and 0.00262 µM | 84.2% and 86.5% | 34.9% and 45.1% | 0.64% and 3.31% | 1.34% and 1.82% | 0.77% and 0.3% | 0.23% and 0.22% |
| CC(CO)NC(=O)c1cc(-c2ccc(Cl)cc2)nn(-c2cnn(C)c2)c1=O (configuration not stated) | 105% and 101% | 105% and 90.6% | 94.4% and 95.7% | 94.6% and 100% | 92.7% and 107% | 89.6% and 82.1% | > 10 µM | – | – | – | – | – | – |
| CC(Nc1ccc2c(c1)OCCn1cc(N3C(=O)OCC3C(F)F)nc1-2)C(N)=O (configuration not stated) | 86.9% and 78.6% | 45.8% and 69.2% | 20.7% and 22.8% | 13.3% and 18.8% | 10.3% and 13.1% | 11% and 14.8% | 0.0889 µM and 0.161 µM | – | – | – | – | – | – |
| CC1(C)CCC(CN2CCN(c3ccc(C(=O)NS(=O)(=O)c4ccc(NCC5CCOCC5)c([N+](=O)[O-])c4)c(Oc4cnc5[nH]ccc5c4)c3)CC2)=C(c2ccc(Cl)cc2)C1 | 87% and 96.7% | 97% and 94.3% | 74% and 113% | 112% and 102% | 54.4% and 93.3% | 10.7% and 22% | 3.55 µM and 6.37 µM | – | – | – | – | – | – |
| CC1COCCN1c1cc(C2(S(C)(=N)=O)CC2)nc(-c2ccnc3[nH]ccc23)n1 (configuration not stated) | 93.5% and 106% | 67% and 101% | 84.1% and 104% | 75.9% and 102% | 49.7% and 87.8% | 26.7% and 56.4% | 3.11 µM and > 10 µM | – | – | – | – | – | – |
| CCCS(=O)(=O)Nc1ccc(F)c(C(=O)c2c[nH]c3ncc(-c4ccc(Cl)cc4)cc23)c1F | 91.7% and 104% | 108% and 107% | 103% and 113% | 132% and 115% | 120% and 118% | 71.7% and 76.3% | > 10 µM | – | – | – | – | – | – |
